Test results reported in patent publication US20250313533A1, “QUINOLINE CARBOXYLIC ACID ESTER COMPOUND AND PREPARATION METHOD AND USE THEREOF” (priority 2019, published 2025).

What was measured:
[1] = tested on: pathogenic bacteria causing fire blight in pears; experiment: In vitro bactericidal activity, fire blight in pears; assay type: cell-based, erwinia; conditions: Erwinia, read-out: inhibitory rate; for inhibition at 1 ppm: dosage 1 ppm; for inhibition at 5 ppm: dosage 5 ppm
Description: (§1) Under aseptic conditions, equal amounts of NB culture medium were added to test tubes, and fixed amounts of the sample solutions were pipetted into the above test tubes in an ascending order of concentrations, respectively. The mixtures were well mixed and added with equal amounts of a bacterial suspension in log phase.
(§2) Each step of the procedure was repeated 4 times. After mixing, the mixture samples were incubated in the dark in a shaking incubator at 25° C. The OD values were measured when the bacteria were in log phase.

black shank in potatoes = experiment: Living crops in vivo protective activity, potatoes (root irrigation); conditions: Solanum tuberosum, read-out: efficacy against black shank in potatoes; for pest or weed control at 5 ppm: dosage 5 ppm; for pest or weed control at 10 ppm: dosage 10 ppm
Description: Root irrigation was carried out on the potatoes for tests according to the designed concentration of the agents. The dosage for each plant was 200 mL and was kept consistent (also for the control). The black shank bacteria were inoculated on the second day after the application. The results were investigated according to the disease condition.

[2] = tested on: pathogenic bacteria causing bacterial wilt in cassava; experiment: organism not typed; assay type: cell-based; conditions: read-out: inhibitory rate
[3] = tested on: soft rot in Chinese cabbages; experiment: whole plant or invertebrate; conditions: 48 h, read-out: efficacy against soft rot in Chinese cabbages
bacterial blight in rice = experiment: whole plant or invertebrate; conditions: Oryza sativa, read-out: efficacy against bacterial blight in rice
cucumber seedlings = experiment: Safety for plant growth after application; assay type: in vivo; conditions: dosage 200 ppm
Excerpt: Taking indoor potted cucumber seedlings as an example, the influence of the compound disclosed herein on growth rate of plant height, chlorophyll content, leaf area, etc. of crops was mainly evaluated.
The results of safety and health-care effect of the compounds of the present disclosure on cucumber seedlings are shown in the following table 1: […]

[4] = tested on: bacterial wilt in tobacco; experiment: whole plant or invertebrate; conditions: Nicotiana tabacum, read-out: efficacy against bacterial wilt in tobacco
[5] = tested on: pathogenic bacteria causing bacterial wilt in tobacco; experiment: whole plant or invertebrate; assay type: cell-based, ralstonia; conditions: read-out: inhibitory rate
[6] = tested on: pathogenic bacteria causing stem rot in sweet potatoes; experiment: In vitro bactericidal activity, stem rot in sweet potatoes; assay type: cell-based, dikia; conditions: read-out: inhibitory rate; for inhibition at 1 ppm: dosage 1 ppm; for inhibition at 5 ppm: dosage 5 ppm
Description: as §1, §2

[7] = tested on: pathogenic bacteria causing fruit blotch in watermelons; experiment: In vitro bactericidal activity, fruit blotch in watermelons; assay type: cell-based, acidovorax; conditions: read-out: inhibitory rate; for inhibition at 1 ppm: dosage 1 ppm; for inhibition at 5 ppm: dosage 5 ppm
Description: as §1, §2

[8] = tested on: stem rot in sweet potatoes; experiment: whole plant or invertebrate; conditions: read-out: efficacy against stem rot in sweet potatoes
[9] = tested on: pathogenic bacteria causing black rot in Chinese cabbages; experiment: In vitro bactericidal activity, black rot in Chinese cabbages; assay type: cell-based, xanthomonas; conditions: Xanthomonas, read-out: inhibitory rate; for inhibition at 1 ppm: dosage 1 ppm; for inhibition at 5 ppm: dosage 5 ppm
Description: as §1, §2

[10] = tested on: pathogenic bacteria causing bacterial angular leaf spot in cucumbers; experiment: In vitro bactericidal activity, bacterial angular leaf spot in cucumbers; assay type: cell-based, pseudomonas; conditions: read-out: inhibitory rate; for inhibition at 1 ppm: dosage 1 ppm; for inhibition at 5 ppm: dosage 5 ppm
Description: as §1, §2

[11] = tested on: fruit blotch in watermelons; experiment: whole plant or invertebrate; conditions: read-out: efficacy against fruit blotch in watermelons
[12] = tested on: pathogenic bacteria causing black shank in potatoes; experiment: In vitro bactericidal activity, black shank in potatoes; assay type: cell-based; conditions: read-out: inhibitory rate; for inhibition at 1 ppm: dosage 1 ppm; for inhibition at 5 ppm: dosage 5 ppm
Description: as §1, §2

[13] = tested on: pathogenic bacteria causing bacterial blight in rice; experiment: whole plant or invertebrate; assay type: cell-based, xanthomonas; conditions: read-out: inhibitory rate

| SMILES | inhibition at 1 ppm [1] [%] | inhibition at 5 ppm [1] [%] | pest or weed control at 10 ppm (black shank in potatoes) [%] | inhibition at 5 ppm [2] [%] | pest or weed control at 10 ppm [3] [%] | pest or weed control at 10 ppm (bacterial blight in rice) [%] | safety for plant growth (discoloration, necrosis, wilt, malformation) (cucumber seedlings) | pest or weed control at 5 ppm [4] [%] | pest or weed control at 10 ppm [4] [%] | inhibition at 5 ppm [5] [%] | inhibition at 5 ppm [6] [%] | inhibition at 5 ppm [7] [%] | pest or weed control at 5 ppm [8] [%] | pest or weed control at 10 ppm [8] [%] | inhibition at 5 ppm [9] [%] | inhibition at 5 ppm [10] [%] | pest or weed control at 5 ppm [11] [%] | pest or weed control at 10 ppm [11] [%] | inhibition at 5 ppm [12] [%] | inhibition at 5 ppm [13] [%] | also measured |
| --- | --- | --- | --- | --- | --- | --- | --- | --- | --- | --- | --- | --- | --- | --- | --- | --- | --- | --- | --- | --- | --- |
| COCOC(=O)c1cn(C2CC2)c2ccc(F)cc2c1=O [Compound 1, methoxymethyl 1-cyclopropyl-6-fluoro-4-oxo-1,4-dihydroquinoline-3-carboxylate] | ≥ 80 | ≥ 90 | ≥ 90 | ≥ 90 | ≥ 90 | ≥ 90 | safe for plant growth | ≥ 90 | ≥ 90 | ≥ 90 | ≥ 90 | ≥ 90 | ≥ 90 | ≥ 90 | ≥ 90 | ≥ 90 | ≥ 90 | ≥ 90 | ≥ 90 | ≥ 90 | pest or weed control at 5 ppm (black shank in potatoes): ≥ 80%; inhibition at 1 ppm [2]: ≥ 80%; pest or weed control at 5 ppm [3]: ≥ 80%; pest or weed control at 5 ppm (bacterial blight in rice): ≥ 80%; inhibition at 1 ppm [5]: ≥ 80%; inhibition at 1 ppm [6]: ≥ 80%; inhibition at 1 ppm [7]: ≥ 80%; inhibition at 1 ppm [9]: ≥ 80%; inhibition at 1 ppm [10]: ≥ 80%; inhibition at 1 ppm [12]: ≥ 80%; inhibition at 1 ppm [13]: ≥ 80% |
| CCOCOC(=O)c1cn(C2CC2)c2ccc(F)cc2c1=O [Compound 2] |  | ≥ 90 | ≥ 90 | ≥ 90 | ≥ 90 | ≥ 90 | safe for plant growth | ≥ 90 | ≥ 90 | ≥ 90 | ≥ 90 | ≥ 90 | ≥ 90 | ≥ 90 | ≥ 90 | ≥ 90 | ≥ 90 | ≥ 90 | ≥ 90 | ≥ 90 |  |
| O=C(OCCCO)c1cn(C2CC2)c2ccc(F)cc2c1=O [Compound 18] | ≥ 80 | ≥ 90 | ≥ 90 | ≥ 90 | ≥ 90 | ≥ 90 | safe for plant growth | ≥ 90 | ≥ 90 | ≥ 90 | ≥ 90 | ≥ 90 | ≥ 90 | ≥ 90 | ≥ 90 | ≥ 90 | ≥ 90 | ≥ 90 | ≥ 90 | ≥ 90 | pest or weed control at 5 ppm (black shank in potatoes): ≥ 80%; inhibition at 1 ppm [2]: ≥ 80%; pest or weed control at 5 ppm [3]: ≥ 80%; pest or weed control at 5 ppm (bacterial blight in rice): ≥ 80%; inhibition at 1 ppm [5]: ≥ 80%; inhibition at 1 ppm [6]: ≥ 80%; inhibition at 1 ppm [7]: ≥ 80%; inhibition at 1 ppm [9]: ≥ 80%; inhibition at 1 ppm [10]: ≥ 80%; inhibition at 1 ppm [12]: ≥ 80%; inhibition at 1 ppm [13]: ≥ 80% |
| O=C(OCCO)c1cn(C2CC2)c2ccc(Cl)cc2c1=O [Compound 44] | ≥ 80 | ≥ 90 | ≥ 90 | ≥ 90 | ≥ 90 | ≥ 90 | safe for plant growth | ≥ 90 | ≥ 90 | ≥ 90 | ≥ 90 | ≥ 90 | ≥ 90 | ≥ 90 | ≥ 90 | ≥ 90 | ≥ 90 | ≥ 90 | ≥ 90 | ≥ 90 | pest or weed control at 5 ppm (black shank in potatoes): ≥ 80%; inhibition at 1 ppm [2]: ≥ 80%; pest or weed control at 5 ppm [3]: ≥ 80%; pest or weed control at 5 ppm (bacterial blight in rice): ≥ 80%; inhibition at 1 ppm [5]: ≥ 80%; inhibition at 1 ppm [6]: ≥ 80%; inhibition at 1 ppm [7]: ≥ 80%; inhibition at 1 ppm [9]: ≥ 80%; inhibition at 1 ppm [10]: ≥ 80%; inhibition at 1 ppm [12]: ≥ 80%; inhibition at 1 ppm [13]: ≥ 80% |
| COCCOC(=O)c1cn(C2CC2)c2ccc(Cl)cc2c1=O [Compound 45, 2-methoxyethyl 6-chloro-1-cyclopropyl-4-oxo-1,4-dihydroquinoline-3-carboxylate] | ≥ 90 | ≥ 90 | ≥ 90 | ≥ 90 | ≥ 90 | ≥ 90 | safe for plant growth | ≥ 90 | ≥ 90 | ≥ 90 | ≥ 90 | ≥ 90 | ≥ 90 | ≥ 90 | ≥ 90 | ≥ 90 | ≥ 90 | ≥ 90 | ≥ 90 | ≥ 90 | pest or weed control at 5 ppm (black shank in potatoes): ≥ 80%; inhibition at 1 ppm [2]: ≥ 90%; pest or weed control at 5 ppm [3]: ≥ 80%; pest or weed control at 5 ppm (bacterial blight in rice): ≥ 80%; inhibition at 1 ppm [5]: ≥ 90%; inhibition at 1 ppm [6]: ≥ 90%; inhibition at 1 ppm [7]: ≥ 90%; inhibition at 1 ppm [9]: ≥ 90%; inhibition at 1 ppm [10]: ≥ 90%; inhibition at 1 ppm [12]: ≥ 90%; inhibition at 1 ppm [13]: ≥ 90% |
| O=C(OCCOC1CC1)c1cn(C2CC2)c2cc(Cl)c(F)cc2c1=O [Compound 160] | ≥ 80 | ≥ 90 | ≥ 90 | ≥ 90 | ≥ 90 | ≥ 90 | safe for plant growth | ≥ 90 | ≥ 90 | ≥ 90 | ≥ 90 | ≥ 90 | ≥ 90 | ≥ 90 | ≥ 90 | ≥ 90 | ≥ 90 | ≥ 90 | ≥ 90 | ≥ 90 | pest or weed control at 5 ppm (black shank in potatoes): ≥ 80%; inhibition at 1 ppm [2]: ≥ 80%; pest or weed control at 5 ppm [3]: ≥ 80%; pest or weed control at 5 ppm (bacterial blight in rice): ≥ 80%; inhibition at 1 ppm [5]: ≥ 80%; inhibition at 1 ppm [6]: ≥ 80%; inhibition at 1 ppm [7]: ≥ 80%; inhibition at 1 ppm [9]: ≥ 80%; inhibition at 1 ppm [10]: ≥ 80%; inhibition at 1 ppm [12]: ≥ 80%; inhibition at 1 ppm [13]: ≥ 80% |
| O=C(OCCCCO)c1cn(C2CC2)c2cc(Cl)c(F)cc2c1=O [Compound 177] | ≥ 90 | ≥ 90 | ≥ 90 | ≥ 90 | ≥ 90 | ≥ 90 | safe for plant growth | ≥ 90 | ≥ 90 | ≥ 90 | ≥ 90 | ≥ 90 | ≥ 90 | ≥ 90 | ≥ 90 | ≥ 90 | ≥ 90 | ≥ 90 | ≥ 90 | ≥ 90 | pest or weed control at 5 ppm (black shank in potatoes): ≥ 90%; inhibition at 1 ppm [2]: ≥ 90%; pest or weed control at 5 ppm [3]: ≥ 90%; pest or weed control at 5 ppm (bacterial blight in rice): ≥ 80%; inhibition at 1 ppm [5]: ≥ 90%; inhibition at 1 ppm [6]: ≥ 90%; inhibition at 1 ppm [7]: ≥ 90%; inhibition at 1 ppm [9]: ≥ 90%; inhibition at 1 ppm [10]: ≥ 90%; inhibition at 1 ppm [12]: ≥ 90%; inhibition at 1 ppm [13]: ≥ 80% |
